We go through 43 compounds from US20170326125A1, “MULTISUBSTITUTED AROMATIC COMPOUNDS AS INHIBITORS OF THROMBIN” (VERSEON CORPORATION, priority 2016, published 2017).

The experiment concerns the target T1, Human thrombin (Homo sapiens, UniProt P00734).
T1 construct: purchased Haematologic Technologies Inc
The experiment in a line: Inhibition of the protease activity of thrombin (chromogenic substrate S-2238). The format is biochemical. Conditions: Table C; 3 nM thrombin, 125 μM S-2238, 10 min pre-incubation, RT.

Broadly, the IC50 is the concentration that inhibits the measured activity by half. A lower IC50 goes with greater potency in that assay. Compound `CC(C)CC(=O)n1nc(-c2cccnc2)nc1NCc1ccc(F)cc1` [Cmpd 314, 1-(5-[(4-fluorophenyl)methyl]amino-3-(pyridin-3-yl)-1H-1,2,4-triazol-1-yl)-3-methylbutan-1-one] had an IC50 of under 100 nM. `O=C(CCc1ccccc1)n1nc(-c2cccnc2)nc1NCc1ccc(F)cc1` [Cmpd 315, 1-(5-[(4-fluorophenyl)methyl]amino-3-(pyridin-3-yl)-1H-1,2,4-triazol-1-yl)-3-phenylpropan-1-one] showed an IC50 of under 100 nM.

For `CCCC(=O)n1nc(-c2cccnc2)nc1NCc1ccc(F)cc1` [Cmpd 316, 1-(5-[(4-fluorophenyl)methyl]amino-3-(pyridin-3-yl)-1H-1,2,4-triazol-1-yl)butan-1-one], the IC50 is under 100 nM. `CC(=O)n1nc(-c2cccnc2)nc1NCc1ccc(F)cc1` [Cmpd 317, 1-(5-[(4-fluorophenyl)methyl]amino-3-(pyridin-3-yl)-1H-1,2,4-triazol-1-yl)ethan-1-one] showed a concentration for half-maximal inhibition (IC50) of under 100 nM. For `COc1ccc(CNc2nc(-c3cccnc3)nn2C(=O)C(C)C)cc1` [Cmpd 318, 1-(5-[(4-methoxyphenyl)methyl]amino-3-(pyridin-3-yl)-1H-1,2,4-triazol-1-yl)-2-methylpropan-1-one] the value was under 100 nM. `COc1ccc(CNc2nc(-c3cccnc3)nn2C(=O)Cc2ccccc2)cc1` [Cmpd 319, 1-(5-[(4-methoxyphenyl)methyl]amino-3-(pyridin-3-yl)-1H-1,2,4-triazol-1-yl)-2-phenylethan-1-one] came in with a half-inhibitory concentration (IC50) of under 100 nM.

With `COc1ccc(CNc2nc(-c3cccnc3)nn2C(=O)CC(C)C)cc1` [Cmpd 320, 1-(5-[(4-methoxyphenyl)methyl]amino-3-(pyridin-3-yl)-1H-1,2,4-triazol-1-yl)-3-methylbutan-1-one], the 50% inhibitory concentration (IC50) is under 100 nM. `COc1ccc(CNc2nc(-c3cccnc3)nn2C(=O)CCc2ccccc2)cc1` [Cmpd 321, 1-(5-[(4-methoxyphenyl)methyl]amino-3-(pyridin-3-yl)-1H-1,2,4-triazol-1-yl)-3-phenylpropan-1-one] had a half-inhibitory concentration (IC50) of 100 to 1000 nM.

For `CCCC(=O)n1nc(-c2cccnc2)nc1NCc1ccc(OC)cc1` [Cmpd 322, 1-(5-[(4-methoxyphenyl)methyl]amino-3-(pyridin-3-yl)-1H-1,2,4-triazol-1-yl)butan-1-one], the concentration for half-maximal inhibition (IC50) is under 100 nM. As for `COc1ccc(CNc2nc(-c3cccnc3)nn2C(C)=O)cc1` [Cmpd 323, 1-(5-[(4-methoxyphenyl)methyl]amino-3-(pyridin-3-yl)-1H-1,2,4-triazol-1-yl)ethan-1-one], the IC50 was 100 to 1000 nM. The value for `CCC(=O)n1nc(-c2cccnc2)nc1NCc1ccc(OC)cc1` [Cmpd 324, 1-(5-[(4-methoxyphenyl)methyl]amino-3-(pyridin-3-yl)-1H-1,2,4-triazol-1-yl)propan-1-one] was 100 to 1000 nM; that for `CC(=O)n1nc(-c2cccnc2)nc1NCc1ccc(C)cc1` [Cmpd 325, 1-(5-[(4-methylphenyl)methyl]amino-3-(pyridin-3-yl)-1H-1,2,4-triazol-1-yl)ethan-1-one] was under 100 nM. The value for `Nc1nc(-c2cccnc2)nn1S(=O)(=O)c1ccccc1` [Cmpd 326, 1-(benzenesulfonyl)-3-(pyridin-3-yl)-1H-1,2,4-triazol-5-amine] was over 1000 nM; that for `O=S(=O)(c1ccccc1)n1nc(-c2cccnc2)nc1NCc1cccs1` [Cmpd 327, 1-(benzenesulfonyl)-3-(pyridin-3-yl)-N-(thiophen-2-ylmethyl)-1H-1,2,4-triazol-5-amine] was over 1000 nM; that for `Nc1nc(C(=O)N2CCOCC2)nn1S(=O)(=O)c1ccccc1` [Cmpd 328, 1-(benzenesulfonyl)-3-[(morpholin-4-yl)carbonyl]-1H-1,2,4-triazol-5-amine] was over 1000 nM. In the case of `CCS(=O)(=O)n1nc(C(=O)N2CCOCC2)nc1N` [Cmpd 329, 1-(ethanesulfonyl)-3-[(morpholin-4-yl)carbonyl]-1H-1,2,4-triazol-5-amine], the half-maximal inhibitory concentration (IC50) was over 1000 nM.

In the case of `CSc1nc(-c2ccco2)nn1C(=O)c1ccccc1Cl` [Cmpd 330, 1-[(2-chlorophenyl)carbonyl]-3-(furan-2-yl)-5-(methylsulfanyl)-1H-1,2,4-triazole], the half-maximal inhibitory concentration (IC50) is under 100 nM. `O=C(c1ccccc1Cl)n1nc(-c2ccco2)nc1NCc1ccc(F)cc1` [Cmpd 331, 1-[(2-chlorophenyl)carbonyl]-N-[(4-fluorophenyl)methyl]-3-(furan-2-yl)-1H-1,2,4-triazol-5-amine] showed an IC50 of under 100 nM. In turn, `O=C(c1ccccc1Cl)n1nc(-c2cccnc2)nc1NCc1ccc(F)cc1` [Cmpd 332, 1-[(2-chlorophenyl)carbonyl]-N-[(4-fluorophenyl)methyl]-3-(pyridin-3-yl)-1H-1,2,4-triazol-5-amine] yielded a concentration for half-maximal inhibition (IC50) of under 100 nM. The value for `COc1ccccc1C(=O)n1nc(-c2ccccc2)nc1N` [Cmpd 334, 1-[(2-methoxyphenyl)carbonyl]-3-phenyl-1H-1,2,4-triazol-5-amine] was over 1000 nM; that for `O=S(=O)(c1ccc(Cl)cc1)n1nc(-c2cccnc2)nc1NCc1cccs1` [Cmpd 336, 1-[(4-chlorobenzene)sulfonyl]-3-(pyridin-3-yl)-N-(thiophen-2-ylmethyl)-1H-1,2,4-triazol-5-amine] was over 1000 nM; that for `Nc1nc(C(=O)N2CCOCC2)nn1S(=O)(=O)c1ccc(Cl)cc1` [Cmpd 337, 1-[(4-chlorobenzene)sulfonyl]-3-[(morpholin-4-yl)carbonyl]-1H-1,2,4-triazol-5-amine] was over 1000 nM. The compound `O=C(c1ccc(Cl)cc1)n1nc(-c2cccnc2)nc1NCc1ccc(F)cc1` [Cmpd 338, 1-[(4-chlorophenyl)carbonyl]-N-[(4-fluorophenyl)methyl]-3-(pyridin-3-yl)-1H-1,2,4-triazol-5-amine] yielded an IC50 of under 100 nM. For `Cc1ccc(C(=O)n2nc(-c3cccnc3)nc2N)cc1` [Cmpd 339, 1-[(4-methylphenyl)carbonyl]-3-(pyridin-3-yl)-1H-1,2,4-triazol-5-amine] the value was 100 to 1000 nM; for `COc1ccc(CNc2nc(-c3cccnc3)nn2C(=O)c2ccco2)cc1` [Cmpd 340, 1-[(furan-2-yl)carbonyl]-N-[(4-methoxyphenyl)methyl]-3-(pyridin-3-yl)-1H-1,2,4-triazol-5-amine], 100 to 1000 nM; for `CCC(=O)n1nc(-c2ccco2)nc1SC` [Cmpd 341, 1-[3-(furan-2-yl)-5-(methylsulfanyl)-1H-1,2,4-triazol-1-yl]propan-1-one], over 1000 nM. For `CCCC(=O)n1nc(-c2cccnc2)nc1NCc1cccs1` [Cmpd 342, 1-[3-(pyridin-3-yl)-5-[(thiophen-2-ylmethyl)amino]-1H-1,2,4-triazol-1-yl]butan-1-one] the value was under 100 nM; for `CC(=O)n1nc(-c2cccnc2)nc1NCc1cccs1` [Cmpd 343, 1-[3-(pyridin-3-yl)-5-[(thiophen-2-ylmethyl)amino]-1H-1,2,4-triazol-1-yl]ethan-1-one], under 100 nM.

As to `CCC(=O)n1nc(-c2ccc(F)cc2)nc1NCc1ccccc1` [Cmpd 345, 1-[5-(benzylamino)-3-(4-fluorophenyl)-1H-1,2,4-triazol-1-yl]propan-1-one], the concentration for half-maximal inhibition (IC50) is over 1000 nM. As to `O=C(Cc1ccccc1)n1nc(-c2ccco2)nc1NCc1ccccc1` [Cmpd 346, 1-[5-(benzylamino)-3-(furan-2-yl)-1H-1,2,4-triazol-1-yl]-2-phenylethan-1-one], the half-inhibitory concentration (IC50) is under 100 nM.

In the case of `O=C(CCc1ccccc1)n1nc(-c2ccco2)nc1NCc1ccccc1` [Cmpd 347, 1-[5-(benzylamino)-3-(furan-2-yl)-1H-1,2,4-triazol-1-yl]-3-phenylpropan-1-one], the half-maximal inhibitory concentration (IC50) was under 100 nM.

Compound `CCC(=O)n1nc(-c2ccco2)nc1NCc1ccccc1` [Cmpd 348, 1-[5-(benzylamino)-3-(furan-2-yl)-1H-1,2,4-triazol-1-yl]propan-1-one] came in with a concentration for half-maximal inhibition (IC50) of under 100 nM. For `CC(C)C(=O)n1nc(-c2cccnc2)nc1NCc1ccccc1` [Cmpd 349, 1-[5-(benzylamino)-3-(pyridin-3-yl)-1H-1,2,4-triazol-1-yl]-2-methylpropan-1-one] the value was under 100 nM; for `CC(C)CC(=O)n1nc(-c2cccnc2)nc1NCc1ccccc1` [Cmpd 350, 1-[5-(benzylamino)-3-(pyridin-3-yl)-1H-1,2,4-triazol-1-yl]-3-methylbutan-1-one], under 100 nM.

In turn, `CCC(=O)n1nc(-c2cccnc2)nc1NCc1ccccc1` [Cmpd 351, 1-[5-(benzylamino)-3-(pyridin-3-yl)-1H-1,2,4-triazol-1-yl]propan-1-one] had a half-maximal inhibitory concentration (IC50) of under 100 nM. In turn, `CCC(=O)n1nc(-c2cccs2)nc1NCc1ccccc1` [Cmpd 352, 1-[5-(benzylamino)-3-(thiophen-2-yl)-1H-1,2,4-triazol-1-yl]propan-1-one] displayed a half-inhibitory concentration (IC50) of under 100 nM. The value for `O=C(Cc1ccccc1)n1nc(-c2ccccc2)nc1NCc1ccccc1` [Cmpd 353, 1-[5-(benzylamino)-3-phenyl-1H-1,2,4-triazol-1-yl]-2-phenylethan-1-one] was under 100 nM. In turn, `O=C(CCc1ccccc1)n1nc(-c2ccccc2)nc1NCc1ccccc1` [Cmpd 354, 1-[5-(benzylamino)-3-phenyl-1H-1,2,4-triazol-1-yl]-3-phenylpropan-1-one] had an IC50 of over 1000 nM. Take `CCC(=O)n1nc(-c2ccccc2)nc1NCc1ccccc1` [Cmpd 355, 1-[5-(benzylamino)-3-phenyl-1H-1,2,4-triazol-1-yl]propan-1-one]: the half-inhibitory concentration (IC50) lay in the range of 100 to 1000 nM.

Regarding `O=C(c1ccccc1)n1nc(-c2cccnc2)nc1NCc1ccc(F)cc1` [Cmpd 356, 1-benzoyl-N-[(4-fluorophenyl)methyl]-3-(pyridin-3-yl)-1H-1,2,4-triazol-5-amine], the concentration for half-maximal inhibition (IC50) is under 100 nM. For `COc1ccc(CNc2nc(-c3cccnc3)nn2C(=O)c2ccccc2)cc1` [Cmpd 357, 1-benzoyl-N-[(4-methoxyphenyl)methyl]-3-(pyridin-3-yl)-1H-1,2,4-triazol-5-amine] the value was 100 to 1000 nM. The value for `O=C(c1ccccc1)n1nc(-c2ccco2)nc1NCc1ccccc1` [Cmpd 358, 1-benzoyl-N-benzyl-3-(furan-2-yl)-1H-1,2,4-triazol-5-amine] was under 100 nM. The value for `O=C(c1ccccc1)n1nc(-c2ccccc2)nc1NCc1ccccc1` [Cmpd 359, 1-benzoyl-N-benzyl-3-phenyl-1H-1,2,4-triazol-5-amine] was under 100 nM.
